In test [1] the target is Serine/threonine-protein kinase Chk1 (Homo sapiens, UniProt O14757). It is filed as functional.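 Also: measured as one member of a kinome-wide kinase profiling panel.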
For test [2], the target named is Casein kinase II subunit alpha (Homo sapiens, UniProt P68400). It is filed as functional.
In test [3] the target is Leukocyte tyrosine kinase receptor (Homo sapiens, UniProt P29376). In words: Navigating the Kinome. Panel member name: LTK. It is filed as functional.
The target of test [4] is Serine/threonine-protein kinase D2 (Homo sapiens, UniProt Q9BZL6). It is filed as functional.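 Also: measured against PRKD2 as one member of a kinome-wide kinase profiling panel.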
Test [5] addresses Glycogen synthase kinase-3 alpha (Homo sapiens, UniProt P49840). It is filed as functional.
In test [6] the target is Interleukin-1 receptor-associated kinase 1 (Homo sapiens, UniProt P51617). It is filed as functional.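 Also: IRAK1 tested as one member of a kinome panel.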
The target in test [7] is Serine/threonine-protein kinase SIK2 (Homo sapiens, UniProt Q9H0K1). The test can be described thus: Navigating the Kinome. Panel member name: SIK2. It is filed as functional.
Test [8] addresses Receptor tyrosine-protein kinase erbB-4 (Homo sapiens, UniProt Q15303). It is filed as functional.
The target in test [9] is Dual specificity tyrosine-phosphorylation-regulated kinase 1A (Homo sapiens, UniProt Q13627). It is filed as functional.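 Also: measured against DYRK1A as one member of a broad kinome profiling panel.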
In test [10] the target is Cyclin-dependent kinase 8 (Homo sapiens, UniProt P49336). The test can be described thus: Navigating the Kinome. Panel member name: CDK8. It is filed as functional.
The target of test [11] is G protein-coupled receptor kinase 5 (Homo sapiens, UniProt P34947). The test can be described thus: Navigating the Kinome. Panel member name: GPRK5. It is filed as functional.
Test [12] concerns the target Fibroblast growth factor receptor 3 (Homo sapiens, UniProt P22607). It is filed as functional.
In test [13] the target is Tyrosine-protein kinase Srms (Homo sapiens, UniProt Q9H3Y6). It is filed as functional.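 Also: SRMS measured as one member of a kinome-wide kinase profiling panel.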
The target in test [14] is Tyrosine-protein kinase ABL1 (Homo sapiens, UniProt P00519). It is filed as functional.
In test [15] the target is BDNF/NT-3 growth factors receptor (Homo sapiens, UniProt Q16620). It is filed as functional.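 Also: NTRK2 measured as one member of a broad kinome-wide kinase profiling panel.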
For test [16], the target named is cAMP-dependent protein kinase catalytic subunit PRKX (Homo sapiens, UniProt P51817). It is filed as functional.
Test [17] addresses Phosphorylase b kinase gamma catalytic chain, liver/testis isoform (Homo sapiens, UniProt P15735). It is filed as functional.
Test [18] addresses Mitogen-activated protein kinase kinase kinase 10 (Homo sapiens, UniProt Q02779). In words: Navigating the Kinome. Panel member name: MAP3K10. It is filed as functional.
For a further test, the target named is SRSF protein kinase 1 (Homo sapiens, UniProt Q96SB4). It is filed as functional.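 Also: measured as one member of a kinome-wide kinase profiling panel.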
For test [19], the target named is Receptor tyrosine-protein kinase erbB-2 (Homo sapiens, UniProt P04626). The test can be described thus: Navigating the Kinome. Panel member name: ERBB2. It is filed as functional.
The target of test [20] is Dual specificity protein kinase CLK4 (Homo sapiens, UniProt Q9HAZ1). It is filed as functional.
For test [21], the target named is Death-associated protein kinase 3 (Homo sapiens, UniProt O43293). It is filed as functional.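 Also: measured as one member of a kinome-wide profiling panel.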
For test [22], the target named is Protein kinase C gamma type (Homo sapiens, UniProt P05129). It is filed as functional.
In test [23] the target is RAC-gamma serine/threonine-protein kinase (Homo sapiens, UniProt Q9Y243). It is filed as functional.
The target of test [24] is STE20-like serine/threonine-protein kinase (Homo sapiens, UniProt Q9H2G2). It is filed as functional.
Test [25] has as its target Cyclin-dependent kinase 1 (Homo sapiens, UniProt P06493). It is filed as functional.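 Also: Kinome-wide panel profiling, with the target listed as panel member CDC2.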
In test [26] the target is Mitogen-activated protein kinase kinase kinase kinase 2 (Homo sapiens, UniProt Q12851). It is filed as functional.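 Also: measured as one member of a kinome-wide kinase panel, with MAP4K2 as the panel entry.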
The target of test [27] is Serine/threonine-protein kinase Nek4 (Homo sapiens, UniProt P51957). It is filed as functional.
Test [28] has as its target Mitogen-activated protein kinase 9 (Homo sapiens, UniProt P45984). It is filed as functional.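 Also: value from a kinome panel profiling assay, MAPK9 panel entry.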
Test [29] deals with Protein kinase C theta type (Homo sapiens, UniProt Q04759). The test can be described thus: Navigating the Kinome. Panel member name: PRKCQ. It is filed as functional.
The target in test [30] is cAMP-dependent protein kinase catalytic subunit alpha (Homo sapiens, UniProt P17612). It is filed as functional.
Test [31] concerns the target Tyrosine-protein kinase BTK (Homo sapiens, UniProt Q06187). It is filed as functional.
The target in test [32] is Serine/threonine-protein kinase Chk2 (Homo sapiens, UniProt O96017). It is filed as functional.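 Also: CHEK2 entry within a kinome-wide screening panel.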
The target of test [33] is Calcium/calmodulin-dependent protein kinase type II subunit delta (Homo sapiens, UniProt Q13557). It is filed as functional.
The target of test [34] is Serine/threonine-protein kinase pim-3 (Homo sapiens, UniProt Q86V86). It is filed as functional.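 Also: value obtained as one member of a broad kinase panel profiling effort.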
In test [35] the target is Non-receptor tyrosine-protein kinase TYK2 (Homo sapiens, UniProt P29597). It is filed as functional.
The next test can be described thus: cells. It is filed as functional, cell-based.
The nature of test [36]: viability loss in THP-1 monocytes – THP-1 cells, cytotoxicity control for Vif-APOBEC3G degradation inhibitor project, dose response (AID 1117359). It is filed as functional. The note with it: THP-1.
Test [37] can be described thus: MIN6 cell viability loss – mouse insulinoma, cytotoxicity control, dose response (AID 2122).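 Also: confirmatory high-throughput counterscreen run to flag cytotoxic compounds; mouse MIN-6 beta cells carrying an insulin promoter eGFP reporter.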 It is filed as functional.
Test [38] deals with T1, Mannose-6-phosphate isomerase (Homo sapiens, UniProt P34949).
T1 sequence (P34949 whole entry): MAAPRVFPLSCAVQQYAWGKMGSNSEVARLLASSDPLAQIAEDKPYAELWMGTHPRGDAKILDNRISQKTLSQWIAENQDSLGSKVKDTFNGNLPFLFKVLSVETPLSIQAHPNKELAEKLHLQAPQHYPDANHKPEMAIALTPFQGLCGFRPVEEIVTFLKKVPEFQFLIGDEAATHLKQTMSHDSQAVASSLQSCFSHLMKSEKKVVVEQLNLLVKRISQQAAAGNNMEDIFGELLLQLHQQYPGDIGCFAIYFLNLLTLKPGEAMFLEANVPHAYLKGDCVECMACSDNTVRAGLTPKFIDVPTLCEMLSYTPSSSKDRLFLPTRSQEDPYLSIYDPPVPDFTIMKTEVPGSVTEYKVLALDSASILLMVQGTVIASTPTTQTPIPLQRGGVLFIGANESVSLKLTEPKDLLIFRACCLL
In words: MPI inhibition at elevated mannose 6-phosphate – biochemical, fluorescence intensity, high mannose 6-phosphate, primary screen (AID 1220).

A further test has as its system Vero. The test can be described thus: viability of Vero cells under compound – cytotoxicity control for flavivirus capping enzyme inhibitors (AID 588742). It is filed as functional. The note with it: Chlorocebus sabaeus.

Activity calls are given as the source filed them.
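For EC50 in this document: proteasome chymotrypsin-like activity measured in U2OS cells; potency is for inhibition of proteasome activity.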

Chain of Receptor tyrosine-protein kinase erbB-4 (Q15303 whole entry): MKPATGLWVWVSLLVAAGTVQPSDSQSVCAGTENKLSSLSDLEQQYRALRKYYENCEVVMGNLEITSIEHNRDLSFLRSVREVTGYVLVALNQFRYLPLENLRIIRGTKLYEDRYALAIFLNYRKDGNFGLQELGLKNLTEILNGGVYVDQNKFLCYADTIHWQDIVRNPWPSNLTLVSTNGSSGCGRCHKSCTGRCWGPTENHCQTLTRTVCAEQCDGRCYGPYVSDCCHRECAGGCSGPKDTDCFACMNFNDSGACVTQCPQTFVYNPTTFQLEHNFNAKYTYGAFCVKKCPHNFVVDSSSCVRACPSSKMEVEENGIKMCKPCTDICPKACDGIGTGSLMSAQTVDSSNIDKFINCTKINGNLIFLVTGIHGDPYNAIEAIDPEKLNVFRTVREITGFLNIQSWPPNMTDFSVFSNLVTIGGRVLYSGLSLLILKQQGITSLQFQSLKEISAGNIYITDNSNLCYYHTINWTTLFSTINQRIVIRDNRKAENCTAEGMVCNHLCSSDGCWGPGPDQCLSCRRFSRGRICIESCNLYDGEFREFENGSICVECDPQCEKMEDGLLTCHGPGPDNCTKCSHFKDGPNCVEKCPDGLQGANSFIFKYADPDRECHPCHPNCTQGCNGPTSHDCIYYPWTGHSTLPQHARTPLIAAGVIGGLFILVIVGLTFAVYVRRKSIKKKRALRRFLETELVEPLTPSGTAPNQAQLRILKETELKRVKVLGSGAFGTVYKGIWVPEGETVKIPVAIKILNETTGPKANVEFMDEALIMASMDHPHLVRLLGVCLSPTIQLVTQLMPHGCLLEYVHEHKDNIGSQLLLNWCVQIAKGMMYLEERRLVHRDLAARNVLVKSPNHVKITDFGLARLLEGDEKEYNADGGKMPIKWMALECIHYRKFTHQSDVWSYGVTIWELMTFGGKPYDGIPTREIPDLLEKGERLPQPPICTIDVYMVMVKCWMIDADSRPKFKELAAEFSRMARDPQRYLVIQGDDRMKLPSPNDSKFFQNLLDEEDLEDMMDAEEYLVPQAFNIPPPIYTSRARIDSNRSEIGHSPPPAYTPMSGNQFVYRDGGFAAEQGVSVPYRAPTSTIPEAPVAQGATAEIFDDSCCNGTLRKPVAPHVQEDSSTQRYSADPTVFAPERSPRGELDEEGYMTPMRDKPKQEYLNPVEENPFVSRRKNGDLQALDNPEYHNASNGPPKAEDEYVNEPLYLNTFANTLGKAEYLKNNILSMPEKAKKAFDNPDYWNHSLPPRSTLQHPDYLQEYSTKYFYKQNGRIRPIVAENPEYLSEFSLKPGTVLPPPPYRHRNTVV
Chain of SRSF protein kinase 1 (Q96SB4 whole entry): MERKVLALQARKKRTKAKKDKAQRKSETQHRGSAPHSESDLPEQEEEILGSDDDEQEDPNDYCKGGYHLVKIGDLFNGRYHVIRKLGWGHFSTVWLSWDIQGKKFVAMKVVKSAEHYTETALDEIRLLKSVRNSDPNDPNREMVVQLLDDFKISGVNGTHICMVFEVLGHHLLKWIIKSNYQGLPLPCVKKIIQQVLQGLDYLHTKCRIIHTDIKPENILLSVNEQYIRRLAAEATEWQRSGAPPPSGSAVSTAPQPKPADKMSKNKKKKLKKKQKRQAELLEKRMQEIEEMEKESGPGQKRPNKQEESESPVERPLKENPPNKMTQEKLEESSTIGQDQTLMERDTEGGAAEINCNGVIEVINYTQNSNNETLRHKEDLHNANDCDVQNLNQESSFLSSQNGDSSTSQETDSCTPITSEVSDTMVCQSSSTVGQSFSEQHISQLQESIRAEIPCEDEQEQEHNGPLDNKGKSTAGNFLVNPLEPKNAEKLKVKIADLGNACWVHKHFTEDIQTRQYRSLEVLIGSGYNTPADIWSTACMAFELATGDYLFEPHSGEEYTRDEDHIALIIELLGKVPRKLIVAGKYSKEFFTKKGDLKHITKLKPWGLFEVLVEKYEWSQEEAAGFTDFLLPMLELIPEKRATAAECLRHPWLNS
Chain of Leukocyte tyrosine kinase receptor (P29376 whole entry): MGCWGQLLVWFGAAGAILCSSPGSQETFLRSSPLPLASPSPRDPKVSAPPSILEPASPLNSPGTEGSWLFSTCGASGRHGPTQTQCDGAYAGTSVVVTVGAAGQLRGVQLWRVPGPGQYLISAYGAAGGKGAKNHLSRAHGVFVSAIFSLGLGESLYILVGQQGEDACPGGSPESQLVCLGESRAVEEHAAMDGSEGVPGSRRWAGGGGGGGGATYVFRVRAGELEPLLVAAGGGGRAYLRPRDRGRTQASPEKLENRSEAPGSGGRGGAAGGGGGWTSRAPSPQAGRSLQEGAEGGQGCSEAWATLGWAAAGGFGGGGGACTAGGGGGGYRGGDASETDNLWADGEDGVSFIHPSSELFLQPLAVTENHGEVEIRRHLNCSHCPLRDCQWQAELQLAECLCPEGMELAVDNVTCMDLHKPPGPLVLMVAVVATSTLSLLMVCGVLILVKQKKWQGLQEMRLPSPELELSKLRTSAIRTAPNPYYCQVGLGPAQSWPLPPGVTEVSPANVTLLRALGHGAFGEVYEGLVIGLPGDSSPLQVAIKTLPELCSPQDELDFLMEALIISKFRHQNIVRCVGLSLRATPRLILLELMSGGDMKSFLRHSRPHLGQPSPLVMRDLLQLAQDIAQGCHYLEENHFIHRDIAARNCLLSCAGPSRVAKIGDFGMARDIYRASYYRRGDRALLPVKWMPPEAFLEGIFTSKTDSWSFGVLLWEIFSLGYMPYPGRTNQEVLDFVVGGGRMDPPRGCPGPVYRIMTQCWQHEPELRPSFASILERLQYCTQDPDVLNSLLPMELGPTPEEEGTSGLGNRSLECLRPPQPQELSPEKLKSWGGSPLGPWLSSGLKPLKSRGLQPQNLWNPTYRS
Chain of RAC-gamma serine/threonine-protein kinase (Q9Y243 whole entry): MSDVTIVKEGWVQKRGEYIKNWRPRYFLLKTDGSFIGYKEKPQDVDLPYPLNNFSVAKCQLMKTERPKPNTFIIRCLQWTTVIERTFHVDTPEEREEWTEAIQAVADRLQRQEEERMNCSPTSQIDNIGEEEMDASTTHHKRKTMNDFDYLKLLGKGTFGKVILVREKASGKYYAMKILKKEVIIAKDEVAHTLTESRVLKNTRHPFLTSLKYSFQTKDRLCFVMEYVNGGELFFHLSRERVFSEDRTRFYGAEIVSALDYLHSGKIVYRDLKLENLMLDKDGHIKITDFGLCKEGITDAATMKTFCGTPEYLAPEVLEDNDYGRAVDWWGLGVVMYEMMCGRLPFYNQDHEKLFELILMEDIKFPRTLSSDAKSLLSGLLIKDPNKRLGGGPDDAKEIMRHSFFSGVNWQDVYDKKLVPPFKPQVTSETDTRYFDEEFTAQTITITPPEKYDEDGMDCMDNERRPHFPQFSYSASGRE
Chain of Serine/threonine-protein kinase SIK2 (Q9H0K1 whole entry): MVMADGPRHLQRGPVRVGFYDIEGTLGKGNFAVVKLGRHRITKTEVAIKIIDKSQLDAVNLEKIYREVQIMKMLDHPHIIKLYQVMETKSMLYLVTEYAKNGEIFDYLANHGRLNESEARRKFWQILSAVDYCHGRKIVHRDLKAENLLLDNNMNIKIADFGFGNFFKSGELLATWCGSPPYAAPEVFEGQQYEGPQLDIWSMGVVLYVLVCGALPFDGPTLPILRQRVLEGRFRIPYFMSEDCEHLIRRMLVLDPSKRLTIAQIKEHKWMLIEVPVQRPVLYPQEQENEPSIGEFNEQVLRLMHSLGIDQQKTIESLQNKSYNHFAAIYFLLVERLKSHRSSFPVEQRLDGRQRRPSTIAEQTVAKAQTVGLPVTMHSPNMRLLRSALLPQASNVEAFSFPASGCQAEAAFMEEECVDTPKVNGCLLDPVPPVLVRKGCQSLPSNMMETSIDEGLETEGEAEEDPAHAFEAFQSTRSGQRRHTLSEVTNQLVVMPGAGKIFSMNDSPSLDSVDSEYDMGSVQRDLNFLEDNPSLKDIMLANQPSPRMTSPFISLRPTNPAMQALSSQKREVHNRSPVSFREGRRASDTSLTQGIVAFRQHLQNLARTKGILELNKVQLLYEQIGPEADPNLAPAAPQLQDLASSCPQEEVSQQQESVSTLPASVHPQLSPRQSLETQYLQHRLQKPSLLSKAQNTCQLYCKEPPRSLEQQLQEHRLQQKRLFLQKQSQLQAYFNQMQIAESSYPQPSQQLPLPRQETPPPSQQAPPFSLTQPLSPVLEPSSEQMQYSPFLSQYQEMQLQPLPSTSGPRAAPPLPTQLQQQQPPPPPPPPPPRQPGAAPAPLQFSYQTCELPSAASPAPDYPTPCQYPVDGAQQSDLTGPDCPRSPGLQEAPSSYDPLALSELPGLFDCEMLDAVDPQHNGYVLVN

Take `OC1CCC(Nc2cc(Cl)nc(-c3c[nH]c4ncccc34)n2)CC1` (stereo unspecified): the Ki is 1000 nM (active) in test [1]; 100 nM (active) in [2]; > 2510 nM (inactive) in test [3]; 316 nM (active) in test [4]; 31.6 nM (active) in test [5]; 1260 nM (active) in test [6]. The Ki in test [7] was 398 nM (active); in [8], > 3980 nM (inactive); in test [9] it was 50.1 nM (active); in [10], 501 nM (active); in test [11] it was > 3980 nM (inactive); in [12], > 2000 nM (inactive). The Ki in [13] was > 1580 nM (inactive); in [14] it was > 631 nM (inactive); in [15], > 5010 nM (inactive); in [16], 398 nM (active); in test [17], > 5010 nM (inactive); in [18], 79.4 nM (active). In addition, the Ki at SRSF protein kinase 1 was > 7940 nM (inactive); in [19], 1000 nM (active); in [20], 20 nM (active); in test [21], 316 nM (active); in [22], 251 nM (active); in test [23], > 6310 nM (inactive). Besides, the inhibitory constant (Ki) was 126 nM (active) in [24]; 1000 nM (active) in [25]; 7.94 nM (active) in test [26]; 794 nM (active) in test [27]; 3160 nM (active) in test [28]; 100 nM (active) in [29]. For the same compound, the Ki in test [30] is 126 nM (active); in [31], > 2510 nM (inactive); in test [32] it was 398 nM (active); in test [33], > 1580 nM (inactive); in test [34], 1260 nM (active); in [35], > 1260 nM (inactive).

As to `CCOC(=O)c1c(NS(=O)(=O)c2ccccc2)n(CCCOC)c2nc3ccccc3nc12`, in the test “cells”, the EC50 is > 350000 nM (not active).

Regarding `COCC/N=c1\scc(-c2cccs2)n1/N=C/c1ccc(O)c(O)c1O`, the CC50 in [36] is 16500 nM (active); in the test on Vero it was 22800 nM (active). In addition, the IC50 was > 16000 nM (inactive) in [37] and 23800 nM (active) in [38].

For the origin of these results see ChEMBL document CHEMBL1201862, “PubChem BioAssay data set” (2004).
